The values that follow are results of earlier work, collected in patent publication US20230364095A1, “TOPICAL TREATMENT OF VITILIGO” (INCYTE CORPORATION, priority 2020, published 2023).

Where two headings read alike, the source gives them in different places.

The subject of the data set is patients with vitiligo.

Turning to `N#CC[C@H](C1CCCC1)n1cc(-c2ncnc3[nH]ccc23)cn1` [ruxolitinib, (R)-3-(4-(7H-pyrrolo[2,3-d]pyrimidin-4-yl)-1H-pyrazol-1-yl)-3-cyclopentylpropanenitrile], the “Clinical outcome (case report)” value (oral 20 mg BID for 20 weeks, patient with alopecia areata and vitiligo) is on record as “hair regrowth as well as repigmentation of areas affected with vitiligo”.
In the case of `C[C@@H]1CCN(C(=O)CC#N)C[C@@H]1N(C)c1ncnc2[nH]ccc12` [tofacitinib], for the setting “oral 5 mg QD, after 5 months, widespread and progressive vitiligo”, the “Clinical outcome (case report)” value is “near complete repigmentation”.
